Measured values from patent US20100143241A1, “Method and apparatus for delivery of agents across the blood brain barrier” (priority 2008, published 2010).

Assays:
mouse brain = test: T1 estimation by spin echo MRI in mice given Gd-DTPA with or without BOMUS; format: in vivo
Method: (§1) To enhance the brain with MR contrast, Gd-DTPA (Magnevist, Bayer HealthCare Pharmaceuticals, Wayne, N.J.) was administered by intraperitoneal (IP) injection 10 minutes prior to BOMUS (FIG. 14b). […] The Gd-DTPA dose was 3.2, 6.4, or 9.5 mmol/kg, as noted later. After BOMUS, high-throughput MR images were acquired. Because Gd-DTPA is normally excluded by the BBB, opening of the BBB was indicated by contrast-enhancement on T1-weighted MRI.
T1 measurements were performed by acquiring a series of 2D spin echo images with varying TRs: TR=200, 400, 800, 1600, 3200, 6400, or 12800 ms; TE=7 ms; BW=31.25; slice thickness=1 mm; FOV=20×20 mm; matrix=128×128. T1 over a region of interest (ROI) was estimated using a three-parameter non-linear fit of the data to the following equation: I=m(1−[…])+a, where I is the mean ROI intensity and TR is the repetition time. The three terms that were fit were m, a multiplicative constant; a, an additive constant; and T1.
To measure the change in relaxivity due to the Gd-DTPA, T1 was estimated in ROIs selected from the cortex, basal ganglia and muscle (FIG. 21). In the control animal receiving neither Gd-DTPA nor BOMUS, T1 values were long in the cortex (2.08 s), basal ganglia (1.97 s), and muscle (2.01 s). In the animal given only Gd-DTPA, the muscle T1 shortened dramatically (0.71 s); but T1 was only shortened modestly in the cortex (1.53 s) and basal ganglia (1.56 s) because the intact BBB excluded the Gd-DTPA. However, in the BOMUS-treated animal, Gd-DTPA not only shortened T1 in the muscle (0.80 s), but Gd-DTPA also crossed the BBB and dramatically shortened T1 in the cortex (0.50 s) and basal ganglia (0.50 s).

blood-brain barrier = test: T1-weighted MRI contrast enhancement of the mouse brain after BBB opening with microbubbles and unfocused ultrasound; format: in vivo; settings: for enhancement in CSF and brain parenchyma: Gd-DTPA 6.4 mmol/kg IP
Source text: Magnetic resonance images were acquired of a live mouse using a 7.0 T magnetic resonance system developed for magnetic resonance microscopy. […] IV injection of gadopentetate dimeglumine a standard magnetic resonance contrast agent results in enhancement of the muscles (FIG. 2b) but the brain remains dark. […] However, application of the ultrasound energy with the combination of Definity and gadopentetate dimeglumine opens the blood-brain barrier allowing the gadopentetate dimeglumine to actively stain the brain. Note in FIG. 2d the signal from the actively stained brain is nearly 5× (i.e., 5 fold or 5 times) stronger than it is in the unstained brain in FIG. 2a.
To open the BBB, 30 microliters of perflutren lipid microspheres (activated Definity) were injected through a tail vein catheter and simultaneously the ultrasound pulse sequence was initiated. The ultrasound was applied for 3 minutes.
as §1
For MRI, a 35 mm diameter quadrature transmit/receive volume coil (m2m Imaging Corp., Cleveland, Ohio) was used. The MR system was a 7 T horizontal bore magnet driven by a GE EXCITE console (General Electric Healthcare, Milwaukee, Wis.). MR images were acquired using either a high-throughput or high-resolution protocol. The high-throughput scan (3.2 minutes) used a 3D spoiled gradient recalled (SPGR) sequence with the following parameters: repetition time (TR)=25 ms; echo time (TE)=2 ms; flip angle (FA)=30 degrees; field of view (FOV)=20×20×12 mm; matrix=128×128×60; number of averages (NEX)=1. Data were acquired at a resolution of 156×156×200 micrometers.
High-resolution images were acquired with a similar 51 minute SPGR protocol: TR=25 ms; TE=3-4 ms; FA=15-22 degrees; FOV=20×20×8 mm; matrix=384×384×80; NEX=4. Data were acquired at a resolution of 52×52×100 micrometers.
To determine if the combination of unfocused ultrasound and microbubbles could be used to globally open the BBB, this treatment was compared to a variety of control scenarios (FIG. 16). […] However, co-administration of ultrasound and microbubbles globally opens the BBB, allowing the Gd-DTPA to enhance the brain. Animals received Gd-DTPA 6.4 mmol/kg IP 10 minutes prior to treatment, and T1-weighted images (high-throughput protocol) were acquired 20 minutes after treatment (FIG. 14b).

[1] = in vivo; cited from earlier work
[2] = BOMUS-treated animal given Gd-DTPA
[3] = animal given only Gd-DTPA, no BOMUS, intact BBB
[4] = Gd-DTPA along with BOMUS, high-resolution SPGR, left anterior cortex

For `CNC[C@H](O)[C@@H](O)[C@H](O)[C@H](O)CO.CNC[C@H](O)[C@@H](O)[C@H](O)[C@H](O)CO.O=C([O-])CN(CCN(CC(=O)[O-])CC(=O)O)CCN(CC(=O)[O-])CC(=O)O.[Gd+3]` [Gd-DTPA, gadopentetate dimeglumine], the “T1 in basal ganglia” value (mouse brain; [2]) was 0.50 s, the T1 in cortex (mouse brain; [2]) was 0.50 s and the T1 in muscle (mouse brain; [2]) was 0.80 s. For the same compound, the “T1 of brain after active staining” value (mouse brain; Gd-DTPA with BOMUS, reduced from approximately 2000 ms) was about 500 ms, the T1 in muscle (mouse brain; animal given only Gd-DTPA, no BOMUS) was 0.71 s and the “T1 in basal ganglia” value (mouse brain; [3]) was 1.56 s. For the same compound, the T1 in cortex (mouse brain; [3]) was 1.53 s, the “enhancement in CSF and brain parenchyma” value (blood-brain barrier; both ultrasound and microbubbles simultaneously) was “dramatic enhancement in the CSF and brain parenchyma” and the “enhancement in CSF and brain parenchyma” value (blood-brain barrier; no treatment, only ultrasound, or only microbubbles) was “no enhancement in the cerebrospinal fluid (CSF) or in the brain parenchyma”. The “increase in SNR over control mouse receiving no contrast agent” value (blood-brain barrier; [4]) was 90%, the “increase in SNR over mouse receiving only Gd-DTPA” value (blood-brain barrier; [4]) was 63% and the “time post-injection within which most of the enhancement occurs” value (blood-brain barrier; IP injection, preliminary studies) was 10 to 15 min. The “wash-out of brain staining after BOMUS” value (blood-brain barrier; time-course of T1-weighted signal, up to 27 hours after BOMUS) was “washes out within a day”, the “signal of actively stained brain relative to unstained brain” value (blood-brain barrier; ultrasound with Definity and gadopentetate dimeglumine, 7.0 T, T1-weighted, FIG. 2) was about 5 × and the half-life [1] was 1.6 h.
